Tests used:
S. aureus DSM 20231 [1] = assay: fitness (endpoint OD595 vs no drug) (fraction); higher = more growth
Procedure, shortened: (§1)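 Cultures at OD595 0.01 were dispensed into 384-well plates in TSB, LB Lennox or CY and incubated at 37 °C. Every 30 min for 14 h, OD595 was read and corrected by the first reading. Fitness is the optical density at entry into stationary phase relative to the robust mean of no-drug control wells, capped at 1.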

S. aureus Newman [2] = assay: as above
Procedure, shortened: as §1

S. pneumoniae D39V [3] = assay: as above
Procedure, shortened: as §1

B. subtilis 168 = assay: Bliss interaction score (quartile over a dose matrix) (fitness difference); higher = more antagonism (negative = synergy)
Procedure, shortened: (§2)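 Quartiles of the Bliss score were taken over technical, biological and donor/recipient replicates. That score is observed fitness minus the product of the single-drug fitness values, which were inferred from combination data. Fitness itself is OD595 at entry into stationary phase divided by the plate's robust no-drug mean, with a cap at 1.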

S. aureus DSM 20231 [4] = assay: as above
Procedure, shortened: as §2

S. aureus Newman [5] = assay: as above
Procedure, shortened: as §2

S. pneumoniae D39V [6] = assay: as above
Procedure, shortened: as §2
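Wherever Bliss interaction score (quartile over a dose matrix) is given: first quartile when negative (synergy) and third quartile when positive (antagonism).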

CC1(C)S[C@@H]2[C@H](NC(=O)[C@H](N)c3ccc(O)cc3)C(=O)N2[C@H]1C(=O)O [Amoxicillin] + Cc1ncc([N+](=O)[O-])n1CCO [Metronidazole]
Settings	fitness
S. aureus DSM 20231 [1], first compound 0.0625 µg/mL, partner 0.625 µg/mL	0.588
S. aureus DSM 20231 [1], first compound 0.125 µg/mL, partner 1.25 µg/mL	0.428
S. aureus DSM 20231 [1], first compound 0.5 µg/mL, partner 0.625 µg/mL	0.0108
S. aureus DSM 20231 [1], first compound 0.5 µg/mL, partner 1.25 µg/mL	0.0138
S. aureus DSM 20231 [1], first compound 0.5 µg/mL, partner 2.5 µg/mL	0.0153
S. aureus Newman [2], first compound 0.0625 µg/mL, partner 0.625 µg/mL	0.835
S. aureus Newman [2], first compound 0.0625 µg/mL, partner 0.781 µg/mL	0.922
S. aureus Newman [2], first compound 0.0625 µg/mL, partner 1.25 µg/mL	0.906
S. aureus Newman [2], first compound 0.0625 µg/mL, partner 1.562 µg/mL	0.917
S. aureus Newman [2], first compound 0.0625 µg/mL, partner 2.5 µg/mL	0.87
S. aureus Newman [2], first compound 0.0625 µg/mL, partner 3.124 µg/mL	0.913
S. aureus Newman [2], first compound 0.125 µg/mL, partner 0.625 µg/mL	0.839
S. aureus Newman [2], first compound 0.125 µg/mL, partner 0.781 µg/mL	0.952
S. aureus Newman [2], first compound 0.125 µg/mL, partner 1.25 µg/mL	0.905
S. aureus Newman [2], first compound 0.125 µg/mL, partner 1.562 µg/mL	0.972
S. aureus Newman [2], first compound 0.125 µg/mL, partner 2.5 µg/mL	0.836
S. aureus Newman [2], first compound 0.125 µg/mL, partner 3.124 µg/mL	0.957
S. aureus Newman [2], first compound 0.25 µg/mL, partner 0.625 µg/mL	0.799
S. aureus Newman [2], first compound 0.25 µg/mL, partner 0.781 µg/mL	0.945
S. aureus Newman [2], first compound 0.25 µg/mL, partner 1.25 µg/mL	0.789
S. aureus Newman [2], first compound 0.25 µg/mL, partner 1.562 µg/mL	0.951
S. aureus Newman [2], first compound 0.25 µg/mL, partner 2.5 µg/mL	0.816
S. aureus Newman [2], first compound 0.25 µg/mL, partner 3.124 µg/mL	0.929
S. pneumoniae D39V [3], first compound 0.0008 µg/mL, partner 1.073 µg/mL	0.958
S. pneumoniae D39V [3], first compound 0.0008 µg/mL, partner 2.145 µg/mL	0.946
S. pneumoniae D39V [3], first compound 0.0008 µg/mL, partner 4.29 µg/mL	0.919
S. pneumoniae D39V [3], first compound 0.0015 µg/mL, partner 1.073 µg/mL	0.972
S. pneumoniae D39V [3], first compound 0.0015 µg/mL, partner 1.25 µg/mL	0.988
S. pneumoniae D39V [3], first compound 0.0015 µg/mL, partner 2.145 µg/mL	0.926
S. pneumoniae D39V [3], first compound 0.0015 µg/mL, partner 2.5 µg/mL	≥ 1
S. pneumoniae D39V [3], first compound 0.0015 µg/mL, partner 4.29 µg/mL	0.941
S. pneumoniae D39V [3], first compound 0.0015 µg/mL, partner 5 µg/mL	0.995
S. pneumoniae D39V [3], first compound 0.003 µg/mL, partner 1.073 µg/mL	0.938
S. pneumoniae D39V [3], first compound 0.003 µg/mL, partner 1.25 µg/mL	0.97
S. pneumoniae D39V [3], first compound 0.003 µg/mL, partner 2.145 µg/mL	0.914
S. pneumoniae D39V [3], first compound 0.003 µg/mL, partner 2.5 µg/mL	0.989
S. pneumoniae D39V [3], first compound 0.003 µg/mL, partner 4.29 µg/mL	0.93
S. pneumoniae D39V [3], first compound 0.003 µg/mL, partner 5 µg/mL	0.946

fitness, S. pneumoniae D39V [3], one replicate
Settings	partner 1.25 µg/mL	partner 2.5 µg/mL	partner 5 µg/mL
first compound 0.0008 µg/mL	≥ 1	≥ 1	≥ 1
first compound 0.006 µg/mL	0.561	0.587	0.574

Settings	Bliss interaction score
B. subtilis 168	0.0817
S. aureus DSM 20231 [4]	0.0885
S. aureus Newman [5]	0.0677
S. pneumoniae D39V [6]	-0.0259

CC1(C)S[C@@H]2[C@H](NC(=O)[C@H](N)c3ccc(O)cc3)C(=O)N2[C@H]1C(=O)O [Amoxicillin] + Cc1onc(-c2ccccc2)c1C(=O)N[C@@H]1C(=O)N2[C@@H]1SC(C)(C)[C@@H]2C(=O)O [Oxacillin]
Settings	fitness
S. aureus DSM 20231 [1], first compound 0.0625 µg/mL, partner 0.0156 µg/mL	0.52
S. aureus DSM 20231 [1], first compound 0.0625 µg/mL, partner 0.0312 µg/mL	0.56
S. aureus DSM 20231 [1], first compound 0.0625 µg/mL, partner 0.0625 µg/mL	0.459
S. aureus DSM 20231 [1], first compound 0.125 µg/mL, partner 0.0156 µg/mL	0.342
S. aureus DSM 20231 [1], first compound 0.125 µg/mL, partner 0.0625 µg/mL	0.263
S. aureus DSM 20231 [1], first compound 0.25 µg/mL, partner 0.0156 µg/mL	0.107
S. aureus DSM 20231 [1], first compound 0.25 µg/mL, partner 0.0312 µg/mL	0.0945
S. aureus DSM 20231 [1], first compound 0.25 µg/mL, partner 0.0625 µg/mL	0.06
S. aureus DSM 20231 [1], first compound 0.5 µg/mL, partner 0.0156 µg/mL	0.0188
S. aureus DSM 20231 [1], first compound 0.5 µg/mL, partner 0.0312 µg/mL	0.0143
S. aureus DSM 20231 [1], first compound 0.5 µg/mL, partner 0.0625 µg/mL	0.021
S. aureus Newman [2], first compound 0.0625 µg/mL, partner 0.0156 µg/mL	0.724
S. aureus Newman [2], first compound 0.0625 µg/mL, partner 0.0312 µg/mL	0.651
S. aureus Newman [2], first compound 0.0625 µg/mL, partner 0.0625 µg/mL	0.575
S. aureus Newman [2], first compound 0.125 µg/mL, partner 0.0156 µg/mL	0.674
S. aureus Newman [2], first compound 0.125 µg/mL, partner 0.0625 µg/mL	0.547
S. aureus Newman [2], first compound 0.25 µg/mL, partner 0.0156 µg/mL	0.663
S. pneumoniae D39V [3], first compound 0.0008 µg/mL, partner 0.01 µg/mL	0.985
S. pneumoniae D39V [3], first compound 0.0008 µg/mL, partner 0.02 µg/mL	0.831
S. pneumoniae D39V [3], first compound 0.0008 µg/mL, partner 0.04 µg/mL	0.33
S. pneumoniae D39V [3], first compound 0.0015 µg/mL, partner 0.005 µg/mL	≥ 1
S. pneumoniae D39V [3], first compound 0.0015 µg/mL, partner 0.01 µg/mL	0.977
S. pneumoniae D39V [3], first compound 0.0015 µg/mL, partner 0.02 µg/mL	0.861
S. pneumoniae D39V [3], first compound 0.0015 µg/mL, partner 0.04 µg/mL	0.266
S. pneumoniae D39V [3], first compound 0.003 µg/mL, partner 0.005 µg/mL	0.957
S. pneumoniae D39V [3], first compound 0.003 µg/mL, partner 0.01 µg/mL	0.882
S. pneumoniae D39V [3], first compound 0.003 µg/mL, partner 0.02 µg/mL	0.825
S. pneumoniae D39V [3], first compound 0.003 µg/mL, partner 0.04 µg/mL	0.12

fitness, S. pneumoniae D39V [3], one replicate
Settings	partner 0.005 µg/mL	partner 0.01 µg/mL	partner 0.02 µg/mL
first compound 0.0008 µg/mL	≥ 1	–	–
first compound 0.006 µg/mL	0.587	0.476	0.147

Settings	Bliss interaction score
B. subtilis 168	0.031
S. aureus DSM 20231 [4]	0.104
S. aureus Newman [5]	0.0431
S. pneumoniae D39V [6]	-0.0929

CC1(C)S[C@@H]2[C@H](NC(=O)[C@H](N)c3ccc(O)cc3)C(=O)N2[C@H]1C(=O)O [Amoxicillin] + Cn1nnc(-c2ccc(-c3ccc(N4C[C@H](CO)OC4=O)cc3F)cn2)n1 [Tedizolid]
fitness
Settings	partner 0.03125 µg/mL	partner 0.0625 µg/mL	partner 0.125 µg/mL	partner 0.25 µg/mL	partner 0.5 µg/mL
S. aureus DSM 20231 [1], first compound 0.0625 µg/mL	–	0.65	0.395	0.151	–
S. aureus DSM 20231 [1], first compound 0.125 µg/mL	–	–	0.184	0.0385	–
S. aureus DSM 20231 [1], first compound 0.25 µg/mL	–	0.0658	0.0466	0.0313	–
S. aureus Newman [2], first compound 0.0625 µg/mL	–	0.853	–	–	–
S. aureus Newman [2], first compound 0.125 µg/mL	–	0.807	–	–	–
S. pneumoniae D39V [3], first compound 0.0008 µg/mL	0.961	0.966	0.781	–	–
S. pneumoniae D39V [3], first compound 0.0015 µg/mL	0.949	0.94	0.788	0.692	0.306
S. pneumoniae D39V [3], first compound 0.003 µg/mL	0.96	0.933	0.759	0.691	0.339

fitness, one replicate
Settings	partner 0.0625 µg/mL	partner 0.125 µg/mL	partner 0.25 µg/mL	partner 0.5 µg/mL
S. aureus DSM 20231 [1], first compound 0.5 µg/mL	0.015	0.0045	0.0057	–
S. pneumoniae D39V [3], first compound 0.0008 µg/mL	–	–	0.7	0.335
S. pneumoniae D39V [3], first compound 0.006 µg/mL	–	0.562	0.462	0.283

Settings	Bliss interaction score
B. subtilis 168	-0.0425
S. aureus DSM 20231 [4]	-0.0515
S. aureus Newman [5]	-0.0673
S. pneumoniae D39V [6]	0.175

From the supplement of paper PMC10627819
